Laboratory results: patent publication US20020098211A1, “ANTIMICROBIAL AGENT AND USES THEREOF, IN PARTICULAR IN COSMETICS AND DERMATOLOGY” (priority 1998, published 2002)

Tested on: Enterococcus faecalis (American Type Culture Collection No. 33186)
Assay: Antimicrobial (preservation) challenge test, count of surviving microorganisms in the inoculated product
Experimental: Bacterium: Enterococcus faecalis (American Type Culture Collection No. 33186), cultured on soybean Trypticase Yeast: Candida albicans (American Type Culture Collection No. 10231), cultured on Sabouraud.
Inoculum preparation: tryptone-salt diluent
Counting: Eugon LT100 agar broth
On the evening before the test, each microbial strain is plated out on the appropriate agar medium and incubated in an oven at 35° C.
On the day of the test, 20 grams of the product are weighed out in a sterile pill box. Inoculation is carried out at a concentration of 1% using a microbial suspension with a titre of 108 microorganisms per ml: a concentration of 106 is obtained in the product. The contaminated sample is incubated in an oven at 22° C.
After incubation for 7 days, 1 gram of product is taken and tenfold dilutions are carried out in Eugon LT100 broth, and these dilutions are plated out on the surface of Petri dishes containing Eugon LT100 agar. The dishes are incubated at 35° C.
The colonies are counted on the dishes containing more than 20 and less than 200 colonies.

SMILES	number of microorganisms per gram of preparation, remaining in the product after 7 days of contact (Table 5, single agent at 3%)	also measured
CCCCCCCC(=O)OC(C)C(=O)OC(C)C(=O)[O-].[Na+] (stereo not shown) [Sodium capryl lactyl lactylate, sodium capryl lactyl lactylate]		number of microorganisms per gram of preparation, remaining in the product after 7 days of contact (Table 5, single agent at 1%): 1.5 × 10^4 microorganisms per gram of preparation
CCCC(O)CO (stereo not shown) [pentanediol, 1,2-pentanediol]	2.3 × 10^5 microorganisms per gram of preparation	
CCCCCCC(O)CO (stereo not shown) [Octanediol, 1,2-octanediol]		number of microorganisms per gram of preparation, remaining in the product after 7 days of contact (Table 5, single agent at 0.25%): 3.7 × 10^5 microorganisms per gram of preparation
CC(O)CCO (stereo not shown) [Butanediol, butanediol]	4.0 × 10^5 microorganisms per gram of preparation	
